The results in this text go back to ChEMBL document CHEMBL1139487, “Discovery of corticotropin releasing factor 2 receptor selective sauvagine analogues for treatment of skeletal muscle atrophy” (J Med Chem, 2005).

The species entered for assay [1] is Mus musculus. Briefly: Selectivity ratio of EC50s for mouse corticotropin releasing factor receptors 1 and 2.
Assay [2] deals with T1, Corticotropin-releasing factor receptor 1 (Mus musculus) (UniProt P35347).
T1 sequence (whole entry): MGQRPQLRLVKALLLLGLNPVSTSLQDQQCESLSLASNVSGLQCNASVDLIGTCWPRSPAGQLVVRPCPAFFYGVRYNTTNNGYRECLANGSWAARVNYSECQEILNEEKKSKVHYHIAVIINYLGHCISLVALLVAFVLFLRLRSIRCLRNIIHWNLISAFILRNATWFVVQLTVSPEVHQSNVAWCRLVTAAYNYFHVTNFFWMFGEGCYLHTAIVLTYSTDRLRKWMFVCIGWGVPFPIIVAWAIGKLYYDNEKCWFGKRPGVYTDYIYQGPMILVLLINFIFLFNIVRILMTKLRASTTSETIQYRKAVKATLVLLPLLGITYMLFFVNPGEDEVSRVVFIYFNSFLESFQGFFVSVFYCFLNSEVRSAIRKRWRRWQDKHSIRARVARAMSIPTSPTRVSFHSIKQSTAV
Nature of the assay: In vitro agonistic activity against mouse corticotropin releasing factor 1 receptor. The format is functional.

Assay [3] deals with Corticotropin-releasing factor receptor 2 (Mus musculus) (UniProt Q60748). Briefly: In vitro agonistic activity against mouse corticotropin releasing factor 2 receptor. In kind it is functional.
Sequence of Corticotropin-releasing factor receptor 2 (Mus musculus) (Q60748 whole entry): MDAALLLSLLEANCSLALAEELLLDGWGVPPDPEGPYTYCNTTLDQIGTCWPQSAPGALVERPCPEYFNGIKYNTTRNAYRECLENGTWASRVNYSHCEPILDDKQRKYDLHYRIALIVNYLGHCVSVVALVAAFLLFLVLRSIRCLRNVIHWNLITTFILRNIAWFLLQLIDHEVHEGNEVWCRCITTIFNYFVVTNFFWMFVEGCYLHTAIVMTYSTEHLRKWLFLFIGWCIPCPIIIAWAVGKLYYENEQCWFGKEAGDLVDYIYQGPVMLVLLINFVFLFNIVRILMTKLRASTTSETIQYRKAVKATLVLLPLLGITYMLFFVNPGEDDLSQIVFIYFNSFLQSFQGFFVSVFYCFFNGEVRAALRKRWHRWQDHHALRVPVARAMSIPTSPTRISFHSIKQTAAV
Assay [4] has as its target T2, Corticotropin-releasing factor receptor 1 (Mus musculus, UniProt P35347).
T2 sequence (P35347 whole entry): T1 sequence (whole entry)
Briefly: In vitro effective concentration for mouse corticotropin releasing factor 1 receptor.

The target in assay [5] is Corticotropin-releasing factor receptor 2 (Mus musculus, UniProt Q60748). Nature of the assay: In vitro effective concentration for mouse corticotropin releasing factor 2 receptor.
Sequence of Corticotropin-releasing factor receptor 2 (Q60748 whole entry): as above

The structures appear in SMILES notation. Some results are limits rather than exact numbers.

Usually Emax stands for the size of the effect at its maximum, as opposed to the concentration needed. Broadly, the EC50 is the concentration needed to bring the measured effect to its halfway point. Turning to `CC[C@H](C)[C@H](NC(=O)[C@@H](NC(=O)[C@H](CC(=O)O)NC(=O)[C@H](CC(C)C)NC(=O)[C@H](CC(C)C)NC(=O)[C@H](CC(C)C)NC(=O)[C@H](CCCN=C(N)N)NC(=O)[C@H](CC(N)=O)NC(=O)[C@H](CC(N)=O)NC(=O)[C@H](C)NC(=O)[C@H](C)NC(=O)[C@H](CCC(N)=O)NC(=O)[C@H](CCC(N)=O)NC(=O)[C@H](CCCCN)NC(=O)[C@H](CCC(=O)O)NC(=O)[C@H](CCCCN)NC(=O)[C@H](CCC(=O)O)NC(=O)[C@H](CCC(N)=O)NC(=O)[C@H](CCCCN)NC(=O)[C@H](CCC(=O)O)NC(=O)[C@@H](NC(=O)[C@H](CCC(=O)O)NC(=O)[C@@H](NC(=O)[C@H](CCSC)NC(=O)[C@H](CCCCN)NC(=O)[C@H](CCCN=C(N)N)NC(=O)[C@H](CC(C)C)NC(=O)[C@H](CC(C)C)NC(=O)[C@H](Cc1ccccc1)NC(=O)[C@H](Cc1ccccc1)NC(=O)[C@@H]1CCCN1C(=O)[C@H](CC(C)C)NC(=O)[C@H](CC(=O)O)NC(=O)[C@@H](NC(=O)[C@H](CO)NC(=O)[C@@H](NC(=O)[C@@H]1CCCN1C(=O)[C@@H]1CCCN1C(=O)CNC(=O)[C@@H]1CCC(=O)N1)[C@@H](C)CC)[C@@H](C)CC)[C@@H](C)CC)[C@@H](C)CC)[C@@H](C)O)C(=O)O`, the Selectivity in assay [1] was determined as 16. Also, the Emax turned out to be 81% in assay [2] and 92% in assay [3]. The EC50 in assay [4] was determined as 0.0481 µM; in assay [5] it was 0.003 µM.

For `CC[C@H](C)[C@H](NC(=O)[C@@H](NC(=O)[C@H](CC(=O)O)NC(=O)[C@H](CC(C)C)NC(=O)[C@H](CC(C)C)NC(=O)[C@H](CC(C)C)NC(=O)[C@H](CCCN=C(N)N)NC(=O)[C@H](CC(N)=O)NC(=O)[C@H](CC(N)=O)NC(=O)[C@H](C)NC(=O)[C@H](C)NC(=O)[C@H](CCC(N)=O)NC(=O)[C@H](CCC(N)=O)NC(=O)[C@H](CCCCN)NC(=O)[C@H](CCC(=O)O)NC(=O)[C@H](CCCCN)NC(=O)[C@H](CCC(=O)O)NC(=O)[C@H](CCC(N)=O)NC(=O)[C@H](CCCCN)NC(=O)[C@H](CCC(=O)O)NC(=O)[C@@H](NC(=O)[C@H](CCC(=O)O)NC(=O)[C@@H](NC(=O)[C@H](CCSC)NC(=O)[C@H](CCCCN)NC(=O)[C@H](CCCN=C(N)N)NC(=O)[C@H](CC(C)C)NC(=O)[C@H](CC(C)C)NC(=O)[C@H](Cc1c[nH]c2ccccc12)NC(=O)[C@H](Cc1ccccc1)NC(=O)[C@@H]1CCCN1C(=O)[C@H](CC(C)C)NC(=O)[C@H](CC(=O)O)NC(=O)[C@@H](NC(=O)[C@H](CO)NC(=O)[C@@H](NC(=O)[C@@H]1CCCN1C(=O)[C@@H]1CCCN1C(=O)CNC(=O)[C@@H]1CCC(=O)N1)[C@@H](C)CC)[C@@H](C)CC)[C@@H](C)CC)[C@@H](C)CC)[C@@H](C)O)C(=O)O`, the Selectivity in assay [1] came out at 20. Also, the maximum response (Emax) came to 100% in assay [2] and 95% in assay [3]. The 50% effective concentration (EC50) in assay [4] came to 0.0946 µM; in assay [5] it was 0.0047 µM.

With `CC[C@H](C)[C@H](NC(=O)[C@@H](NC(=O)[C@H](CC(=O)O)NC(=O)[C@H](CC(C)C)NC(=O)[C@H](CC(C)C)NC(=O)[C@H](CC(C)C)NC(=O)[C@H](CCCN=C(N)N)NC(=O)[C@H](CC(N)=O)NC(=O)[C@H](CC(N)=O)NC(=O)[C@H](C)NC(=O)[C@H](C)NC(=O)[C@H](CCC(N)=O)NC(=O)[C@H](CCC(N)=O)NC(=O)[C@H](CCCCN)NC(=O)[C@H](CCC(=O)O)NC(=O)[C@H](CCCCN)NC(=O)[C@H](CCC(=O)O)NC(=O)[C@H](CCC(N)=O)NC(=O)[C@H](CCCCN)NC(=O)[C@H](CCC(=O)O)NC(=O)[C@@H](NC(=O)[C@H](CCC(=O)O)NC(=O)[C@@H](NC(=O)[C@H](CCSC)NC(=O)[C@H](CCCCN)NC(=O)[C@H](CCCN=C(N)N)NC(=O)[C@H](CC(C)C)NC(=O)[C@H](CC(C)C)NC(=O)[C@H](CC(C)C)NC(=O)[C@H](CCC(N)=O)NC(=O)[C@@H]1CCCN1C(=O)[C@H](CC(C)C)NC(=O)[C@H](CC(=O)O)NC(=O)[C@@H](NC(=O)[C@H](CO)NC(=O)[C@@H](NC(=O)[C@@H]1CCCN1C(=O)[C@@H]1CCCN1C(=O)CNC(=O)[C@@H]1CCC(=O)N1)[C@@H](C)CC)[C@@H](C)CC)[C@@H](C)CC)[C@@H](C)CC)[C@@H](C)O)C(=O)O`, the Selectivity in assay [1] worked out at 16. Further, the Emax is 96% in assay [2] and 93% in assay [3]. Also, the EC50 in assay [4] was found to be 0.447 µM; in assay [5], 0.0276 µM.

For the compound `CC[C@H](C)[C@H](NC(=O)[C@@H](NC(=O)[C@H](CC(=O)O)NC(=O)[C@H](CC(C)C)NC(=O)[C@H](CC(C)C)NC(=O)[C@H](CC(C)C)NC(=O)[C@H](CCCN=C(N)N)NC(=O)[C@H](CC(N)=O)NC(=O)[C@H](CC(N)=O)NC(=O)[C@H](C)NC(=O)[C@H](C)NC(=O)[C@H](CCC(N)=O)NC(=O)[C@H](CCC(N)=O)NC(=O)[C@H](CCCCN)NC(=O)[C@H](CCC(=O)O)NC(=O)[C@H](CCCCN)NC(=O)[C@H](CCC(=O)O)NC(=O)[C@H](CCC(N)=O)NC(=O)[C@H](CCCCN)NC(=O)[C@H](CCC(=O)O)NC(=O)[C@@H](NC(=O)[C@H](CCC(=O)O)NC(=O)[C@@H](NC(=O)[C@H](CCSC)NC(=O)[C@H](CCCCN)NC(=O)[C@H](CCCN=C(N)N)NC(=O)[C@H](CC(C)C)NC(=O)[C@H](CC(C)C)NC(=O)[C@H](Cc1ccccc1)NC(=O)[C@H](CCC(N)=O)NC(=O)[C@@H]1CCCN1C(=O)[C@H](CC(C)C)NC(=O)[C@H](CC(=O)O)NC(=O)[C@@H](NC(=O)[C@H](CO)NC(=O)[C@@H](NC(=O)[C@@H]1CCCN1C(=O)[C@@H]1CCCN1C(=O)CNC(=O)[C@@H]1CCC(=O)N1)[C@@H](C)CC)[C@@H](C)CC)[C@@H](C)CC)[C@@H](C)CC)[C@@H](C)O)C(=O)O`, the Selectivity in assay [1] is 28. Further, the Emax in assay [2] and in assay [3] was 100% each time. Further, the EC50 in assay [4] was 0.236 µM; in assay [5], 0.0085 µM.

`CC[C@H](C)[C@H](NC(=O)[C@@H](NC(=O)[C@H](CC(=O)O)NC(=O)[C@H](CC(C)C)NC(=O)[C@H](CC(C)C)NC(=O)[C@H](CC(C)C)NC(=O)[C@H](CCCN=C(N)N)NC(=O)[C@H](CC(N)=O)NC(=O)[C@H](CC(N)=O)NC(=O)[C@H](C)NC(=O)[C@H](C)NC(=O)[C@H](CCC(N)=O)NC(=O)[C@H](CCC(N)=O)NC(=O)[C@H](CCCCN)NC(=O)[C@H](CCC(=O)O)NC(=O)[C@H](CCCCN)NC(=O)[C@H](CCC(=O)O)NC(=O)[C@H](CCC(N)=O)NC(=O)[C@H](CCCCN)NC(=O)[C@H](CCC(=O)O)NC(=O)[C@@H](NC(=O)[C@H](CCC(=O)O)NC(=O)[C@@H](NC(=O)[C@H](CCSC)NC(=O)[C@H](CCCCN)NC(=O)[C@H](CCCN=C(N)N)NC(=O)[C@H](CC(C)C)NC(=O)[C@H](CC(C)C)NC(=O)[C@H](CCC(N)=O)NC(=O)[C@@H](NC(=O)[C@@H]1CCCN1C(=O)[C@H](CC(C)C)NC(=O)[C@H](CC(=O)O)NC(=O)[C@@H](NC(=O)[C@H](CO)NC(=O)[C@@H](NC(=O)[C@@H]1CCCN1C(=O)[C@@H]1CCCN1C(=O)CNC(=O)[C@@H]1CCC(=O)N1)[C@@H](C)CC)[C@@H](C)CC)[C@@H](C)CC)[C@@H](C)CC)[C@@H](C)CC)[C@@H](C)O)C(=O)O`: the Selectivity in assay [1] was > 41. Further, the Emax turned out to be 6% in assay [2] and 78% in assay [3]. In addition, the EC50 in assay [4] is > 1 µM; in assay [5], 0.0246 µM.

Take `CC[C@H](C)[C@H](NC(=O)[C@@H](NC(=O)[C@H](CC(=O)O)NC(=O)[C@H](CC(C)C)NC(=O)[C@H](CC(C)C)NC(=O)[C@H](CC(C)C)NC(=O)[C@H](CCCN=C(N)N)NC(=O)[C@H](CC(N)=O)NC(=O)[C@H](CC(N)=O)NC(=O)[C@H](C)NC(=O)[C@H](C)NC(=O)[C@H](CCC(N)=O)NC(=O)[C@H](CCC(N)=O)NC(=O)[C@H](CCCCN)NC(=O)[C@H](CCC(=O)O)NC(=O)[C@H](CCCCN)NC(=O)[C@H](CCC(=O)O)NC(=O)[C@H](CCC(N)=O)NC(=O)[C@H](CCCCN)NC(=O)[C@H](CCC(=O)O)NC(=O)[C@@H](NC(=O)[C@H](CCC(=O)O)NC(=O)[C@@H](NC(=O)[C@H](CCSC)NC(=O)[C@H](CCCCN)NC(=O)[C@H](CCCN=C(N)N)NC(=O)[C@H](CC(C)C)NC(=O)[C@H](CC(C)C)NC(=O)[C@H](Cc1ccccc1)NC(=O)[C@H](C)NC(=O)[C@@H]1CCCN1C(=O)[C@H](CC(C)C)NC(=O)[C@H](CC(=O)O)NC(=O)[C@@H](NC(=O)[C@H](CO)NC(=O)[C@@H](NC(=O)[C@@H]1CCCN1C(=O)[C@@H]1CCCN1C(=O)CNC(=O)[C@@H]1CCC(=O)N1)[C@@H](C)CC)[C@@H](C)CC)[C@@H](C)CC)[C@@H](C)CC)[C@@H](C)O)C(=O)O`: the Selectivity in assay [1] is 41. Also, the Emax in assay [2] was determined as 95%; in assay [3], 100%. The EC50 in assay [4] amounted to 0.384 µM; in assay [5] it was 0.0094 µM.
